# From publication PMC9970268 (Cancer Research Communications, 2022)
# Key:
# [1] = system: PAK1/2/3; assay: Western blot of PAK phosphorylation in MDA-MB-231 cells; assay type: cell-based, human; details: MDA-MB-231, 250 nmol/L
# From the text: Total cell lysates or pulldowns were Western blotted using routine procedures. The primary antibodies used were anti-Rac (Cell Signaling Technology), anti-Cdc42 (Abcam), anti-PAK1+PAK2+PAK3 (Cell Signaling Technology), anti-pPAK1 (T423)/PAK2 (T402; Abcam), anti-PAK1 + PAK2 + PAK3 (phospho T423; Abcam), Rac1B, and β-actin (Millipore-Sigma).
# [2] = system: Cdc42; details: metastatic breast cancer cells; cited from earlier work
# [3] = system: HER-2–positive (HER2+) tumor; details: immunocompromised mice; cited from earlier work
# [4] = mice; cited from earlier work
# [5] = in vivo; details: rats and dogs
# [6] = GLP toxicity studies; details: GLP data from a Contact Research Organization; rodents or dogs
# [7] = system: GFP-HER2-BM cells; assay: Apoptosis assay (Caspase-Glo3/7); assay type: cell-based, human; details: 500 nmol/L, 48 hours
# Experimental: (§1) Apoptosis was measured using a Caspase-Glo3/7 Luminescence Assay Kit as per manufacturer's instructions (Promega, Corp.), as described previously ([23]). Briefly, Caspase-3/7 Glo reagent was added and incubated at room temperature for 60 minutes and caspase-3/7 activities were determined by detecting luminescence using Tecan Microplate Reader M100 (Tecan). Data were calculated as fold change from vehicle. (n = 3 biologic replicates: with three technical replicates each).
# [8] = system: MDA-MB-231 cells; assay: Apoptosis assay (Caspase-Glo3/7); assay type: cell-based, human; details: 500 nmol/L, 48 hours
# Experimental: as §1
# [9] = system: MDA-MB-468 cells; assay: Apoptosis assay (Caspase-Glo3/7); assay type: cell-based, human; details: 500 nmol/L, 48 hours
# Experimental: as §1
# [10] = system: MDA-MB-231, GFP-HER2-BM, and MDA-MB-468 cells; assay: Apoptosis assay (Caspase-Glo3/7), cell line not specified; assay type: cell-based, human; details: 500 nmol/L, 48 hours
# Experimental: as §1
# [11] = system: GFP-HER2-BM cells; assay: Transwell directed migration of attached and detached cells; assay type: cell-based, human; details: treated 24 hr
# Experimental: migration. Cells treated for 24hr and the attached and detached cell populations recovered and equal cell numbers were seeded on Transwells with […] and incubated for 7 hr.
# Cells that migrated to the underside of the membrane were stained with propidium iodide and imaged at 20X. Representatives images are a result from two technical replicates and three […]
# (1 picture or pasted object on this page, not shown here)
# [12] = target: T1, Rac1(G15A) interaction with Vav2 (Homo sapiens, UniProt P63000, G15A); assay: Rac1 (G15A) pulldown assay, Vav2; assay type: binding; details: 250 nmol/L, 1 hour preincubation, MDA-MB-231 cell lysates
# T1 construct: purchased Cell Biolabs; host or cells: GEF from MDA-MB-231 lysate
# Experimental: MDA-MB-231 cells were lysed in 1% Triton X-100, 20 mmol/L HEPES, pH 7.4, 150 mmol/L NaCl, 5 mmol/L MgCl2, and protease inhibitors, and processed as described previously ([20]). Equal amounts of protein from cleared lysates were incubated for 1 hour at 4°C with glutathione-agarose beads conjugated to GST-Rac1 and GST-Cdc42(G15A) nucleotide-free mutant (Cell Biolabs) that were preincubated (for 1 hour) with vehicle or Rac/Cdc42 inhibitors, as indicated. The beads were washed, and pulldowns were immunoblotted for Vav2 or Ect2.
# [13] = target: T2, Rac1 (Homo sapiens, UniProt P63000); assay: Nucleotide association assay, catalyzed by Vav2; assay type: biochemical; parameters: purchased Cytoskeleton, Inc; details: 2 or 10 μmol/L, N-MAR-GTP
# Experimental: (§2) The nucleotide loading on purified Rho GTPases was monitored using a fluorophore-based Rho GEF Exchange Assay Kit as per manufacturer's instructions (Cytoskeleton, Inc.). Drugs were diluted in exchange buffer and incubated with Rac1, Cdc42, or RhoA. […] After the initial five readings (T0), GEFs (Dbs or Vav2) or Ethylenediaminetetraacetic acid (EDTA) was added to stimulate exchange and readings were obtained every 30 seconds for at least 60 cycles.
# [14] = target: T2, Rac1; assay: Nucleotide association assay, induced by EDTA; details: read-out: inhibition of EDTA-induced loading of N-MAR-GTP on Rac1
# Experimental: as §2
# (§3) After initial five readings, the exchange factor Dbs was added to catalyze the loading of N-
# (§4) B. 2µM Rac1 was incubated with 0 or 2 µM
# [15] = target: RhoA (Homo sapiens, UniProt P61586); assay: Nucleotide association assay, catalyzed by Dbs; details: 2 μmol/L, N-MAR-GTP
# Chain of RhoA (P61586 whole entry): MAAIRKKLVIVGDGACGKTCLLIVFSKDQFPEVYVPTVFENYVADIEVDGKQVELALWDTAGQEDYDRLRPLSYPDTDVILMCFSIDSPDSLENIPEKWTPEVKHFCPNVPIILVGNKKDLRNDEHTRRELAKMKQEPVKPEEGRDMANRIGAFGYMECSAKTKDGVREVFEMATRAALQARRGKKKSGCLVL
# Experimental: as §2, §3, §4
# [16] = target: T2, Rac1; assay: Rac activation pulldown assay in MDA-MB-231 cells; details: MDA-MB-231, 24 hours, various concentrations
# Experimental: (§5) Rac-GTP and Cdc42-GTP were detected using Rac Activity Assay or Cdc42 Activity Assay, as per manufacturer's instructions (Cell Signaling Technology). Briefly, total cell lysates were quantified and added equally to PAK-p21–binding domain conjugated Sepharose beads. After 1 hour of incubation, beads were washed, bound proteins extracted in sample buffer, and Rac1-GTP and Cdc42-GTP detected by Western blot analysis using Rac1, Rac1b, or Cdc42 antibody. (n = 3 biological replicates).
# [17] = target: Rac1B splice variant (Homo sapiens, UniProt P63000); assay: Rac1B activation pulldown assay in MDA-MB-468 cells; details: MDA-MB-468, 500 nmol/L, 24 hours
# Experimental: as §5
# [18] = target: Cdc42 (Homo sapiens, UniProt P60953); assay: Cdc42 activation pulldown assay in MDA-MB-231 cells; details: MDA-MB-231, 24 hours
# Chain of Cdc42 (Homo sapiens, UniProt P60953) (P60953 whole entry, the tested form may be a part): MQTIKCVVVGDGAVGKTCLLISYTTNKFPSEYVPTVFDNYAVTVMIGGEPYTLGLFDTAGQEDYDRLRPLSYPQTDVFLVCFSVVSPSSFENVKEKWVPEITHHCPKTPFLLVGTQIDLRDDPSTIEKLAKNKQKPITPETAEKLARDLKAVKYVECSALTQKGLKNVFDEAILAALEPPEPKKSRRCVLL
# Experimental: as §5
# [19] = target: T2, Rac1; assay: Rac activation pulldown assay (PAK p21-binding domain); details: GFP-HER2-BM cells, 250 nmol/L, 24 hours
# Experimental: as §5
structure (smiles),measurement,setting,value
CCn1c2ccccc2c2cc(-n3nncc3-c3ccccc3)ccc21 [MBQ-167],reduction of p-PAK1/3 levels (Thr423),[1],approximately 75%
same,reduction of p-PAK2 S144 (61 kD band),[1],approximately 50%
same,reduction of p-PAK2 T423 (61 kD band),[1],approximately 60%
same,IC50,[2],78 nM
same,inhibition of HER2+ tumor growth and metastasis to all organs,[3],approximately 90%
same,half-life in plasma,[4],approximately 2.5 hours
same,half-life in tumor tissue,[4],approximately 8 hours
same,NOAEL,[5],1000 mg/kg
same,dose with no apparent toxicity,[6],"up to 1,000 mg/kg"
CCn1c2ccccc2c2cc(-n3nncc3-c3cccc(OC)c3)ccc21 [MBQ-168],Caspase-3/7 activity,[7],significantly increased Caspase-3/7 activity
same,Caspase-3/7 activity,[8],significantly increased Caspase-3/7 activity
same,Caspase-3/7 activity,[9],significantly increased Caspase-3/7 activity
same,caspase-3/7 activity compared with the vehicle,[10],three to five times
same,directed migration,[11],both cell types were inhibited
same,"decrease of p-PAK ser 141, 154, PAK1/3 (68 kD band)",[1],approximately 95%
same,reduction of p-PAK1/3 levels (Thr423),[1],approximately 100%
same,reduction of p-PAK2 S144 (61 kD band),[1],approximately 50%
same,reduction of p-PAK2 T423 (61 kD band),[1],approximately 100%
same,Rac1(G15A) interaction with Vav2,[12],no effect
same,inhibition of GTP loading on Rac1 catalyzed by Vav2,[13],≥ 30%
same,inhibition at 2 µM,[14],~50%
same,Dbs-catalyzed exchange of RhoA,[15],did not affect
same,Rac.GTP incorporation,[16],inhibits Rac.GTP incorporation in a dose-dependent manner
same,activation and expression of Rac1B,[17],"inhibited activation of Rac1B, as well as expression"
same,Cdc42 activity,[18],reduced in a dose-dependent manner
same,Rac1-GTP,[19]; attached and detached cell population,complete depletion
same,reduction of Rac1 activation (Rac1.GTP),[19]; attached cell population,approximately 100%
same,decrease in Rac1 expression,[19]; detached cell population,approximately 100%
